Patent US8178577B2, “Tricyclic derivatives as potent and selective histone deacetylase inhibitors” (Shenzhen Chipscreen Biosciences Ltd., priority 2008, dated 2012)

Columns and labels:
Format in all cases: cell-based
HL60 = experiment: Cell proliferation (MTS), HL60; details: Homo sapiens, HL-60, 72 hours
Protocol: (§1) Measurement of In Vivo Cell Proliferation:
(§2) Tumor cells were trypsinized and plated into 96-well plates at 3,000 per well and incubated in complete medium with 10% FBS for 24 hours. Compounds were added over a final concentration range of 100 μmol/L to 100 nmol/L in 0.1% DMSO and incubated for 72 hours in complete medium. The effects on proliferation were determined by addition of MTS reagent (Promega) according to the instruction, incubation for 2 hours at 37° C. in CO2 incubator, and record the absorbance at 490 nm using an ELISA plate reader.

HDAC7 = target: T1, HDAC7 (Homo sapiens, UniProt Q8WUI4); experiment: Nur77 reporter gene assay in HeLa cells; details: HeLa, 24 h, read-out: % of SAHA Response for HDAC7 at 10 μM (Nur77 reporter gene)
T1 construct: endogenous in cells; host or cells: HeLa
T1 sequence (Q8WUI4 1-952): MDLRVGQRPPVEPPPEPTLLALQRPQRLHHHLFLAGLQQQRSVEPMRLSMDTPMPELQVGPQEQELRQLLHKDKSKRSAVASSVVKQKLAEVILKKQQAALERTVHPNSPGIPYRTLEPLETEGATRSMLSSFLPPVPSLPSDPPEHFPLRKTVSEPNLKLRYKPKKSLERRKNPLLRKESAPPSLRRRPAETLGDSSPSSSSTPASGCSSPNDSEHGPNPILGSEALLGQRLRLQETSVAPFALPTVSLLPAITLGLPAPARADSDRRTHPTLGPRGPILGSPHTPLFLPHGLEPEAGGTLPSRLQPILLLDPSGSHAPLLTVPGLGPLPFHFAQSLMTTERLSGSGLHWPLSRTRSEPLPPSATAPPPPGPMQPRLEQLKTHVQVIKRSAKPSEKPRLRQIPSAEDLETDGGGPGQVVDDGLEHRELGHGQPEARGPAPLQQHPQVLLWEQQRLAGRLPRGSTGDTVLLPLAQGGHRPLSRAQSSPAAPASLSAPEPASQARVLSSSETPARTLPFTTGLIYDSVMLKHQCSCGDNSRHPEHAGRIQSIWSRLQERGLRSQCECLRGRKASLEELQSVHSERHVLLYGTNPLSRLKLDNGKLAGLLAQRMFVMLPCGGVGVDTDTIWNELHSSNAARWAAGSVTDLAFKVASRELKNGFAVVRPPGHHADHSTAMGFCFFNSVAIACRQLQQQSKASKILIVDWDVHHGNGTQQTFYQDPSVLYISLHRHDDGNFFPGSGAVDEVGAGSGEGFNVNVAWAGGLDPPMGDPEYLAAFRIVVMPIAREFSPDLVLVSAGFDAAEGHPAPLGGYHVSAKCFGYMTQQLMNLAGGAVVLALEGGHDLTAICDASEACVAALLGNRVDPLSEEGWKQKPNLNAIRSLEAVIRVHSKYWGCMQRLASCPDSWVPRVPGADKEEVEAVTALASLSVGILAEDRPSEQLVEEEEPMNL
Protocol: HDAC subtype selectivity inhibition assay of tested compounds was carried out by several reporter gene assays experiments. Briefly, HeLa cells were seeded in 96-well plates the day before transfection to give a confluence of 50-80%. Cells were transfected with one of reporter gene plasmids containing a promoter sequences or response elements upstream of a luciferase gene construct using FuGene6 transfection reagent according to the manufacturer's instructions (Roche). The promoter or response elements including p21-promoter, gdf11-promoter, serum response element (SRE), MEF-binding element were fused upstream to the luciferase gene reporter construct. For normalizing the transfection efficiency, a GFP expression plasmid was cotransfected. Cells were allowed to express protein for 24 hours followed by addition of individual compounds or the vehicle (DMSO). 24 hours later the cells were harvested, and the luciferase assays were performed using the luciferase assay kit according to the manufacturer's instructions (Promega). To normalize the data from the luciferase assays, β-galactosidase activity from transfected cells was measured using a kit (Promega) as instructed by the manufacturer.

Hut-78 = experiment: Cell proliferation (MTS), Hut-78; details: Homo sapiens, HuT78, 72 hours
Protocol: as §1, §2

Row | GI50 (HL60) [µM] | activation at 10 µM (HDAC7) [%] | SMILES | GI50 (Hut-78) [µM]
1 | 2.29 | 38 | Nc1cc(F)ccc1NC(=O)CCCCCNC(=O)C=C1c2ccccc2-c2ccccc21 [Example 12, 6-(2-(9H-fluoren-9-ylidene)acetamido)-N-(2-amino-4-fluorophenyl)hexanamide] | 3.89
2 | 1.35 | 66 | Nc1ccccc1NC(=O)CCCCCNC(=O)C=C1c2ccccc2-c2ccccc21 [Example 13, 6-(2-(9H-fluoren-9-ylidene)acetamido)-N-(2-aminophenyl)hexanamide] | 1.35
